# Source: patent US10155047B2, “Polymers having therapeutically active agents conjugated thereto, processes of preparing same and uses thereof” (Ramot at Tel-Aviv University Ltd., priority 2012, dated 2018)
# Ends that are not written are not given here.
# What was measured:
# HUVECs = experiment: Capillary-like tube formation assay of HUVECs; type: cell-based, human; details: PTX-equivalent concentrations of 80 nM
# Experimental: The surface of 24-well plates is coated with Cultrex® basement membrane (50 μl/well; 10 mg/ml) on ice and then allowed to polymerize at 37° C. for 30 minutes. HUVECs (3×10^4) are seeded on coated plates in the presence of conditioned media of tumor cells treated with the conjugate and its controls. After 8 hours of incubation (37° C.; 5% CO2), wells are imaged using bright-field technique (Nikon TE2000E inverted microscope integrated with Nikon DS5 cooled CCD camera by 4× objective).
# The effect of the PGA-PTX-DOX conjugate (Route 1, see, FIG. 18) on capillary-like tube formation of HUVECs was tested and compared to that of the free drugs, each alone and in combination, to that of PGA alone and to that of a PGA-PTX conjugate.
# The effect of PGA, free PTX (80 nM), free C3, the conjugate PGA-C3, and the conjugates PGA-PTX and PGA-PTX-C3, at PTX-equivalent concentrations of 80 nM, on capillary-like tube formation of human umbilical vein endothelial cells (HUVEC) was evaluated, in order to confirm that anti-angiogenic properties of PTX are maintained after conjugation.
# [1] = Zeta potential of conjugates; type: physicochemical; details: Table 13
# [2] = Conjugate size by DLS analysis; type: physicochemical; details: estimated from DLS analysis
# Excerpt: Based on DLS analysis, it is estimated that the conjugate is 10 nm in size, which is a suitable size for selective distribution by the EPR effect.
# ES-2 cells = experiment: ES-2 proliferation after 7 minutes treatment, wash and 72 hours in medium; type: cell-based, human; details: wash
# Experimental: The effect of PGA, free PTX and the conjugates PGA-PTX, PGA-C3, and PGA-PTX-C3 on proliferation of ES-2 cells was evaluated after incubation of the cells with each treatment for 7 minutes, washing the cells and incubation in medium for 72 hours.
# Short incubation time was selected since in the usual 72-hour incubation time, both the targeted and non-targeted conjugates would have had sufficient time to internalize into the cells. Under these experiment conditions, only the targeted conjugate remained bound to the cells, while non-targeted polymers or conjugates washed off, resulting in lower efficacy.
substance,measurement,setting,value
"PGA-C3-PTX: PGA having attached C3 NCAM targeting peptide (SEQ ID NO:3) and PTX (GASKKPKRNIKA; also: conjugated to polyglutamic acid (PGA) and paclitaxel, site not given here)",inhibition of capillary-like tube formation,HUVECs,inhibited the formation of capillary-like tubes
same,Zeta potential,[1],−27.3 mV
same,size of the conjugate,[2],10 nm
same,inhibition of proliferation,ES-2 cells,inhibited the proliferation of ES-2 cells more than non-targeted PGA-PTX
